Data on 33 molecules can be found in patent publication US9000186B2, “Ring-fused heterocyclic derivative” (Kyowa Hakko Kirin Co., Ltd., priority 2011, dated 2015).

The target in the first test is T1, human Cav3.2 T-type Ca2+ channel (Homo sapiens, UniProt O95180).
T1 construct: expressed in transfected cells; host or cells: KJMGER8 cells (Namalwa cell-derived cell line)
T1 sequence (O95180 whole entry): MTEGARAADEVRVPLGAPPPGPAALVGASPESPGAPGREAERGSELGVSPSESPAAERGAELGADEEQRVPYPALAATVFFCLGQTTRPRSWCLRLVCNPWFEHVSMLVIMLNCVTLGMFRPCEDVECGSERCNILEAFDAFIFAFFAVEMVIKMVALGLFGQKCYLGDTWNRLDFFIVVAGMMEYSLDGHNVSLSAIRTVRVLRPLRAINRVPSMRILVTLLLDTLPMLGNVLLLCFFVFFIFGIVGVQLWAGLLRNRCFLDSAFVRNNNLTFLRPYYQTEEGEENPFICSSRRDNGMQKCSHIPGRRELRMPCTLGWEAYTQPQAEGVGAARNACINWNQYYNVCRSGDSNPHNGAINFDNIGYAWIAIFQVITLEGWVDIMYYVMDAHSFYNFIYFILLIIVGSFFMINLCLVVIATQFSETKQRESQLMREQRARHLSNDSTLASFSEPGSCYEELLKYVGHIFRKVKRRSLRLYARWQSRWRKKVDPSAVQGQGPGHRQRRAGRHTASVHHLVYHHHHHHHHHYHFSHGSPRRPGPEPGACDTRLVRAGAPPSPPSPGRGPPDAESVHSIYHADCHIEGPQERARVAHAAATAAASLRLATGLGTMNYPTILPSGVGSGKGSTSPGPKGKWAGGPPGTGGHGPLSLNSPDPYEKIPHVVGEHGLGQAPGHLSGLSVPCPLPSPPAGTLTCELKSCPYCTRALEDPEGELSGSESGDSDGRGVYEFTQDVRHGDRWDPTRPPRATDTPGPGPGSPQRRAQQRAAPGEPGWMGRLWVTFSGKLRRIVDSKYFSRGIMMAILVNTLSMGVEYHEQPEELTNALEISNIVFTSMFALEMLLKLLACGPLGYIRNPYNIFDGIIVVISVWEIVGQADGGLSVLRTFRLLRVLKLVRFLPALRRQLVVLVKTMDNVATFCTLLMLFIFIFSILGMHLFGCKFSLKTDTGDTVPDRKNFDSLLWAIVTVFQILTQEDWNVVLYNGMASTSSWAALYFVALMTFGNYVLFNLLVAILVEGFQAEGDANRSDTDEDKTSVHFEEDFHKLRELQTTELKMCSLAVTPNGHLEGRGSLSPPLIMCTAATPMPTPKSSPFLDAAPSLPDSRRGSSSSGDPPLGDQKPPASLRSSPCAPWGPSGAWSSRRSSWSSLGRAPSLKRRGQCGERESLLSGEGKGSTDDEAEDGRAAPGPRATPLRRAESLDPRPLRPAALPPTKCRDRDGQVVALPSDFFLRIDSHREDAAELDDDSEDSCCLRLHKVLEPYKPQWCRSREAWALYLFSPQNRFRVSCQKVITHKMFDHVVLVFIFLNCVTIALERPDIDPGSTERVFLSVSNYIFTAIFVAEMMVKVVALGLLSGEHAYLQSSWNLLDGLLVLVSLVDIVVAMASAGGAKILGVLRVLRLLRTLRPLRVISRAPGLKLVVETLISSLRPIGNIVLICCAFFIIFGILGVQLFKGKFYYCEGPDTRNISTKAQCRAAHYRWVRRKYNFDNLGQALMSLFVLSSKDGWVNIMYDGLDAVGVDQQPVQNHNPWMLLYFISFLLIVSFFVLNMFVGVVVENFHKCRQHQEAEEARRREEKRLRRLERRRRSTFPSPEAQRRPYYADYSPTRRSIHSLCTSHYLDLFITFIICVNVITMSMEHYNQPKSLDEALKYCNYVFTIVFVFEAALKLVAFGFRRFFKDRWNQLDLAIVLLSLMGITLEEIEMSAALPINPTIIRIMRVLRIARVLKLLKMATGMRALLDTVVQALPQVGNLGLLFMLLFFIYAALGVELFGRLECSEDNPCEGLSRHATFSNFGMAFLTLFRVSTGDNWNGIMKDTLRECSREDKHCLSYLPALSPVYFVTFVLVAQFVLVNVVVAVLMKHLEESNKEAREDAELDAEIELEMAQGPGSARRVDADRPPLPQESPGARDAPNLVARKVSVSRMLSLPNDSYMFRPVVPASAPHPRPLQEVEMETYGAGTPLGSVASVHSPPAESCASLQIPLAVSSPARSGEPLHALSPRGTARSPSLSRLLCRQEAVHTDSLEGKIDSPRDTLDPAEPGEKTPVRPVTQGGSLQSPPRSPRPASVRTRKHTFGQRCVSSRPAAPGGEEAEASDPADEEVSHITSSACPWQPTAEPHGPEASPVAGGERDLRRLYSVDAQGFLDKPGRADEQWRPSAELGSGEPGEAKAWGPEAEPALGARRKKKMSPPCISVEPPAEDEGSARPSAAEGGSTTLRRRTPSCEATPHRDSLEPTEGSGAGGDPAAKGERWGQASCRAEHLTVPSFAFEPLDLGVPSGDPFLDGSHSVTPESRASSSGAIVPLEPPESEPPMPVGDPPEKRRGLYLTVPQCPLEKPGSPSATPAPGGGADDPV
Description: Inhibitory effect for intracellular calcium response via Cav3.2 T-type Ca2+ channels (FLIPR Calcium 3 Assay Kit). The format is cell-based.
Conditions: not given
(In general: Calcium assays in cells follow changes in intracellular calcium, usually with a dye or a luminescent sensor.)
For orientation: IC50 means the concentration that inhibits the measured activity by half. For the molecule `CC(C)c1nc2cc(C(=O)NC3CC(F)(F)C3)c(Cl)cn2c1S(=O)(=O)N1CC(F)(F)C1` [Compound 151, 6-Chloro-3-(3,3-difluoroazetidin-1-ylsulfonyl)-N-(3,3-difluorocyclobutyl)-2-isopropylimidazo[1,2-a]pyridine-7-carboxamide], the IC50 is below 100 nM. With `Cc1cc(C(=O)NCC2(C)COC2)cc2nc(C(F)(F)F)c(CC3CCC(F)(F)CC3)n12` [Compound 95, 3-(4,4-Difluorocyclohexylmethyl)-5-methyl-N-{(3-methyloxetan-3-yl)methyl}-2-trifluoromethylimidazo[1,2-a]pyridine-7-carboxamide], the IC50 was below 100 nM. For the molecule `Cc1cc(C(=O)Nc2ccccc2N)cc2nc(C(F)(F)F)c(CC3CCC(F)(F)CC3)n12` [Compound 68, N-(2-Aminophenyl)-3-(4,4-difluorocyclohexylmethyl)-5-methyl-2-trifluoromethylimidazo[1,2-a]pyridine-7-carboxamide], the 50% inhibitory concentration (IC50) is below 100 nM. `COC(C)(C)c1nc2cc(C(=O)NC3CCOCC3)cc(C)n2c1CC1CCC(F)(F)CC1` [Compound 97, 3-(4,4-Difluorocyclohexylmethyl)-2-(2-methoxypropan-2-yl)-5-methyl-N-(tetrahydro-2H-pyran-4-yl)imidazo[1,2-a]pyridine-7-carboxamide]: the IC50 is below 100 nM. Same read-out and setting: the value for `CC(C)c1nc2cc(C(=O)Nc3nccs3)ccn2c1COC1CCCCC1` [Compound 25, 3-Cyclohexyloxymethyl-2-isopropyl-N-(thiazol-2-yl)imidazo[1,2-a]pyridine-7-carboxamide] was below 100 nM; that for `CCN(CC)C(=O)c1ccn2c(SC3CCCCC3)c(C(C)C)nc2c1` [Compound 12, 3-Cyclohexylthio-N,N-diethyl-2-isopropylimidazo[1,2-a]pyridine-7-carboxamide] was below 100 nM.

Turning to `CC(C)CC(=O)N(C)c1ccn2c(CC3CCCCC3)c(C(C)(C)C)nc2c1` [Compound 19, N-(2-tert-Butyl-3-cyclohexylmethylimidazo[1,2-a]pyridin-7-yl)-N,3-dimethylbutanamide], the half-inhibitory concentration (IC50) is below 100 nM. As for `Cc1cn2c(S(=O)(=O)C3CCCCC3)c(C(C)C)nc2cc1C(=O)Nc1ccncc1` [Compound 39, 3-Cyclohexylsulfonyl-2-isopropyl-6-methyl-N-(pyridin-4-yl)imidazo[1,2-a]pyridine-7-carboxamide], the half-maximal inhibitory concentration (IC50) was below 100 nM. The same measure, in the same setting: the value for `O=C(Nc1ccccc1)c1ccn2c(S(=O)(=O)N3CC(F)(F)C3)c(C3CC3)nc2c1` [Compound 138, 2-Cyclopropyl-3-(3,3-difluoroazetidin-1-ylsulfonyl)-N-phenylimidazo[1,2-a]pyridine-7-carboxamide] was below 100 nM. Same read-out and setting: the value for `CC(C)c1nc2cc(C(=O)N3CCc4ccccc43)ccn2c1S(=O)(=O)N1CCCCC1` [Compound 136, Indolin-1-yl{2-isopropyl-3-(piperidin-1-ylsulfonyl)imidazo[1,2-a]pyridin-7-yl}methanone] was below 100 nM; that for `CC(C)c1nc2cc(C(=O)Nc3ccccc3)ccn2c1S(=O)(=O)N(C1CC1)C1CC1` [Compound 131, 3-(N,N-Dicyclopropylsulfamoyl)-2-isopropyl-N-phenylimidazo[1,2-a]pyridine-7-carboxamide] was below 100 nM; that for `CC(C)c1nc2cc(C(=O)Nc3ccncc3)ccn2c1Cc1ccccc1` [Compound 37, 3-Benzyl-2-isopropyl-N-(pyridin-4-yl)imidazo[1,2-a]pyridine-7-carboxamide] was below 100 nM. As to `O=C(Nc1ccccc1)c1cc(Cl)n2c(CC3CCC(F)(F)CC3)c(C(F)(F)F)nc2c1` [Compound 102, 5-Chloro-3-(4,4-difluorocyclohexylmethyl)-N-phenyl-2-trifluoromethylimidazo[1,2-a]pyridine-7-carboxamide], the half-maximal inhibitory concentration (IC50) is below 100 nM. Same read-out and setting: the value for `CC(C)(C)NS(=O)(=O)c1c(C(C)(C)C)nc2cc(C(=O)NC3CCOCC3)c(Cl)cn12` [Compound 162, 2-tert-Butyl-3-(N-tert-butylsulfamoyl)-6-chloro-N-(tetrahydro-2H-pyran-4-yl)imidazo[1,2-a]pyridine-7-carboxamide] was below 100 nM. With `O=C(NC1CC=CCC1)c1ccn2c(CC3CCC(F)(F)CC3)c(C(F)(F)F)nc2c1` (stereo not drawn) [Compound 180, N-(Cyclohex-3-enyl)-3-(4,4-difluorocyclohexylmethyl)-2-trifluoromethylimidazo[1,2-a]pyridine-7-carboxamide], the half-inhibitory concentration (IC50) was below 100 nM. The same measure, in the same setting: then `Cc1cc(C(=O)NC2CCC(=O)CC2)cc2nc(C(F)(F)F)c(CC3CCC(F)(F)CC3)n12` [Compound 71, 3-(4,4-Difluorocyclohexylmethyl)-5-methyl-N-(4-oxocyclohexyl)-2-trifluoromethylimidazo[1,2-a]pyridine-7-carboxamide], with below 100 nM; and `CC(C)c1nc2cc(C(=O)Nc3ccccc3)ccn2c1S(=O)(=O)N(C(C)C)C1CC1` [Compound 130, 3-(N-Cyclopropyl-N-isopropylsulfamoyl)-2-isopropyl-N-phenylimidazo[1,2-a]pyridine-7-carboxamide], with below 100 nM. Same read-out and setting: then `COCC1(CNC(=O)c2ccn3c(CC4CCC(F)(F)CC4)c(C(F)(F)F)nc3c2)CCOCC1` [Compound 59, 3-(4,4-Difluorocyclohexylmethyl)-N-[{4-(methoxymethyl)tetrahydro-2H-pyran-4-yl}methyl]-2-trifluoromethylimidazo[1,2-a]pyridine-7-carboxamide], with below 100 nM.

Still in this test, the particulars now being: human Cav3.2-expressing KJMGER8 cells (Namalwa-derived); calcium response induced by 5 mmol/L CaCl2; normalised to 3 μmol/L mibefradil; read-out: IC50 for the human Cav3.2 T-type Ca2+ current.
Turning to `C#CC(C)(C)NS(=O)(=O)c1c(C(C)C)nc2cc(C(=O)Nc3ccccc3)c(Cl)cn12` [Compound 179, 6-Chloro-2-isopropyl-3-{N-(2-methylbut-3-yne-2-yl)sulfamoyl}-N-phenylimidazo[1,2-a]pyridine-7-carboxamide], the IC50 is below 100 nM. For `CC(C)c1nc2nc(C(=O)NC3CCCCC3)ccn2c1S(=O)(=O)N1CCC(F)(F)CC1` [Compound 172, N-Cyclohexyl-3-(4,4-difluoropiperidin-1-ylsulfonyl)-2-isopropylimidazo[1,2-a]pyrimidine-7-carboxamide], the half-inhibitory concentration (IC50) was below 100 nM. Same read-out and setting: the value for `Cc1cc(-c2nc3ccccc3[nH]2)cc2nc(C(F)(F)F)c(CC3CCC(F)(F)CC3)n12` [Compound 127, 2-{3-(4,4-Difluorocyclohexylmethyl)-5-methyl-2-trifluoromethylimidazo[1,2-a]pyridin-7-yl}-1H-benzimidazole] was below 100 nM. The same measure, in the same setting: then `CC(C)c1nc2cc(C(=O)NOCc3ccccc3)c(Cl)cn2c1S(=O)(=O)N1CC(F)(F)C1` [Compound 152, N-Benzyloxy-6-chloro-3-(3,3-difluoroazetidin-1-ylsulfonyl)-2-isopropylimidazo[1,2-a]pyridine-7-carboxamide], with below 100 nM. Still for that read-out and setting: the value for `CC1(CNC(=O)c2ccn3c(CC4CCC(F)(F)CC4)c(C(F)(F)F)nc3c2)CCCO1` (stereo not drawn) [Compound 57, 3-(4,4-Difluorocyclohexylmethyl)-N-{(2-methyltetrahydrofuran-2-yl)methyl}-2-trifluoromethylimidazo[1,2-a]pyridine-7-carboxamide] was below 100 nM; that for `CC(C)c1nc2cc(C(=O)NCC3CC3)c(Cl)cn2c1S(=O)(=O)N1CC(F)(F)C1` [Compound 150, 6-Chloro-N-cyclopropylmethyl-3-(3,3-difluoroazetidin-1-ylsulfonyl)-2-isopropylimidazo[1,2-a]pyridine-7-carboxamide] was below 100 nM; that for `O=C(Nc1ccccc1)c1ccn2c(S(=O)(=O)N3CC(F)(F)C3)c(C(F)(F)F)nc2c1` [Compound 146, 3-(3,3-Difluoroazetidin-1-ylsulfonyl)-N-phenyl-2-trifluoromethylimidazo[1,2-a]pyridine-7-carboxamide] was below 100 nM. As to `CS(=O)(=O)c1nc2cc(C(=O)Nc3ccccc3)ccn2c1S(=O)(=O)N1CCC(F)(F)CC1` [Compound 143, 3-(4,4-Difluoropiperidin-1-ylsulfonyl)-2-(methylsulfonyl)-N-phenylimidazo[1,2-a]pyridine-7-carboxamide], the IC50 is below 100 nM. As to `CC(C)c1nc2cc(C(=O)NC3CC(F)(F)C3)c(Cl)cn2c1S(=O)(=O)NC(C)(C)C` [Compound 158, 3-(N-tert-Butylsulfamoyl)-6-chloro-N-(3,3-difluorocyclobutyl)-2-isopropylimidazo[1,2-a]pyridine-7-carboxamide], the IC50 is below 100 nM. Same read-out and setting: then `CC(C)c1nc2cc(NC(=O)c3ccccc3)ccn2c1COC1CCCCC1` [Compound 28, N-(3-Cyclohexyloxymethyl-2-isopropylimidazo[1,2-a]pyridin-7-yl)benzamide], with below 100 nM; and `CC(C)c1nc2cc(-c3nc4ccccc4[nH]3)ccn2c1COC1CCCCC1` [Compound 33, 2-(3-Cyclohexyloxymethyl-2-isopropylimidazo[1,2-a]pyridin-7-yl)-1H-benzimidazole], with below 100 nM. Same read-out and setting: then `Cc1cn2c(S(=O)(=O)N3CC4(COC4)C3)c(C(C)C)nc2cc1C(=O)Nc1ccccc1` [Compound 166, 3-(2-Oxa-6-azaspiro[3.3]heptan-6-ylsulfonyl)-2-isopropyl-6-methyl-N-phenylimidazo[1,2-a]pyridine-7-carboxamide], with below 100 nM; and `CC(C)c1nc2cc(C(=O)Nc3ccccc3)ccn2c1S(=O)(=O)N(C)c1ccccc1` [Compound 132, 2-Isopropyl-3-(N-methyl-N-phenylsulfamoyl)-N-phenylimidazo[1,2-a]pyridine-7-carboxamide], with below 100 nM; and `CC(C)c1nc2cc(NC(=O)C3CCCCC3)ncn2c1S(=O)(=O)N1CCC(F)(F)CC1` [Compound 175, N-{3-(4,4-Difluoropiperidin-1-ylsulfonyl)-2-isopropylimidazo[1,2-c]pyrimidin-7-yl}cyclohexanecarboxamide], with below 100 nM.

Take `CC(C)c1nc2cc(-c3nc4ccccc4[nH]3)c(Cl)cn2c1S(=O)(=O)N1CC(F)(F)C1` [Compound 170, 2-{6-Chloro-3-(3,3-difluoroazetidin-1-ylsulfonyl)-2-isopropylimidazo[1,2-a]pyridin-7-yl}-1H-benzimidazole]: the IC50 was below 100 nM.
